Assay results as given in ChEMBL document CHEMBL3045519, “Selective Herbicidal Activity of 3, 5-Dichloropyridyloxy-phenoxypropionamidoxyacetic Acid Derivatives between Wheat and Wild Oat” (J Pestic Sci, 1996).
Active and inactive are the calls of the source. The rule behind the calls is not given here.

What was measured:
Triticum aestivum [1] = test: Phytotoxicity against Triticum aestivum (wheat) under greenhouse conditions at 5 g/a at 1.5-leaf stage measured after 3 weeks by pot test; type: organism-based; conditions: in vivo, 504 h
Triticum aestivum [2] = test: Phytotoxicity against Triticum aestivum (wheat) under greenhouse conditions at 10 g/a at 1.5-leaf stage measured after 3 weeks by pot test; type: organism-based; conditions: in vivo, 504 h
Triticum aestivum [3] = test: Phytotoxicity against Triticum aestivum (wheat) under greenhouse conditions at 2.5 g/a at 1.5-leaf stage measured after 3 weeks by pot test; type: organism-based; conditions: in vivo, 504 h
Triticum aestivum [4] = test: Phytotoxicity against Triticum aestivum (wheat) under greenhouse conditions at 1.3 g/a at 1.5-leaf stage measured after 3 weeks by pot test; type: organism-based; conditions: in vivo, 504 h
Avena fatua [5] = test: Post-emergence herbicidal activity against Avena fatua under greenhouse conditions at 10 g/a at 1.5-leaf stage measured after 3 weeks by pot test; type: functional, organism-based
Avena fatua [6] = test: Post-emergence herbicidal activity against Avena fatua under greenhouse conditions at 5 g/a at 1.5-leaf stage measured after 3 weeks by pot test; type: functional, organism-based
Avena fatua [7] = test: Post-emergence herbicidal activity against Avena fatua under greenhouse conditions at 2.5 g/a at 1.5-leaf stage measured after 3 weeks by pot test; type: functional, organism-based
Avena fatua [8] = test: Post-emergence herbicidal activity against Avena fatua under greenhouse conditions at 1.3 g/a at 1.5-leaf stage measured after 3 weeks by pot test; type: functional, organism-based
Triticum aestivum [9] = test: Phytotoxicity against Triticum aestivum (wheat) under greenhouse conditions at 40 g/a at 1.5-leaf stage measured after 3 weeks by pot test; type: organism-based; conditions: in vivo, 504 h
Avena fatua [10] = test: Post-emergence herbicidal activity against Avena fatua under greenhouse conditions at 40 g/a at 1.5-leaf stage measured after 3 weeks by pot test; type: functional, organism-based
Avena fatua [11] = test: Post-emergence herbicidal activity against Avena fatua under greenhouse conditions compound treated at 1.5-leaf stage measured after 3 weeks by pot test relative to diclofop-methyl; type: functional
Triticum aestivum [12] = test: Phytotoxicity against Triticum aestivum (wheat) under greenhouse conditions at 0.6 g/a at 1.5-leaf stage measured after 3 weeks by pot test; type: organism-based; conditions: in vivo, 504 h
Triticum aestivum [13] = test: Phytotoxicity against Triticum aestivum (wheat) under greenhouse conditions at 0.3 g/a at 1.5-leaf stage measured after 3 weeks by pot test; type: organism-based; conditions: in vivo, 504 h
Avena fatua [14] = test: Post-emergence herbicidal activity against Avena fatua under greenhouse conditions at 0.3 g/a at 1.5-leaf stage measured after 3 weeks by pot test; type: functional, organism-based
Avena fatua [15] = test: Post-emergence herbicidal activity against Avena fatua under greenhouse conditions at 0.6 g/a at 1.5-leaf stage measured after 3 weeks by pot test; type: functional, organism-based

Compound | Activity (Triticum aestivum [1]) | Activity (Triticum aestivum [2]) | Activity (Triticum aestivum [3]) | Activity (Triticum aestivum [4]) | Activity (Avena fatua [5]) | Activity (Avena fatua [6]) | Activity (Avena fatua [7]) | Activity (Avena fatua [8]) | Activity (Triticum aestivum [9]) | Activity (Avena fatua [10]) | Ratio (Avena fatua [11]) | Activity (Triticum aestivum [12]) | Activity (Triticum aestivum [13]) | Activity (Avena fatua [14]) | Activity (Avena fatua [15])
CC(Oc1ccc(Oc2ccc(Cl)cc2Cl)cc1)C(=O)O (stereo not given) [DICLOFOP] | Non-toxic | Non-toxic | Non-toxic | Non-toxic | Active | Active | Active | Active | – | – | – | – | – | – | –
CC(Oc1ccc(Oc2ccc(Cl)cc2Cl)cc1)C(=O)NOCC(=O)O (stereo not given) | – | – | – | – | – | – | – | – | Non-toxic | inactive | – | – | – | – | –
CCNC(=O)CNC(=O)C(C)Oc1ccc(Oc2ncc(Cl)cc2Cl)cc1 (stereo not given) | Non-toxic | – | Non-toxic | Non-toxic | – | Active | Active | Active | – | – | 2 | Non-toxic | Non-toxic | Active | Active
CC(Oc1ccc(Oc2ncc(Cl)cc2Cl)cc1)C(=O)NO (stereo not given) | – | – | Non-toxic | Non-toxic | – | – | Active | Active | – | – | – | Non-toxic | Non-toxic | inactive | Active
CONC(=O)C(C)Oc1ccc(Oc2ncc(Cl)cc2Cl)cc1 (stereo not given) | – | – | Toxic | Toxic | – | – | Active | Active | – | – | – | Toxic | Non-toxic | Active | Active
CCCOC(=O)CNC(=O)C(C)Oc1ccc(Oc2ncc(Cl)cc2Cl)cc1 (stereo not given) | – | – | Non-toxic | Non-toxic | – | – | Active | Active | – | – | – | Non-toxic | Non-toxic | Active | Active
COC(=O)C(C)Oc1ccc(Oc2ccc(Cl)cc2Cl)cc1 (stereo not given) [DICLOFOP-METHYL] | Non-toxic | Non-toxic | Non-toxic | Non-toxic | Active | Active | Active | inactive | – | – | – | Non-toxic | – | – | inactive
CC(Oc1ccc(Oc2ncc(Cl)cc2Cl)cc1)C(=O)NN (stereo not given) | – | – | Non-toxic | Non-toxic | – | – | inactive | inactive | – | – | – | Non-toxic | Non-toxic | inactive | inactive
COC(=O)C(C)Oc1ccc(Oc2ncc(Cl)cc2Cl)cc1 (stereo not given) | – | – | Toxic | Toxic | – | – | Active | Active | – | – | – | Toxic | Toxic | Active | Active
CC(Oc1ccc(Oc2ncc(C(F)(F)F)cc2Cl)cc1)C(=O)O (stereo not given) [HALOXYFOP] | – | – | Toxic | Toxic | – | – | Active | Active | – | – | – | Toxic | Toxic | Active | Active
CC(Oc1ccc(Oc2ncc(Cl)cc2Cl)cc1)C(=O)N(C)C (stereo not given) | – | – | – | – | – | – | – | – | Non-toxic | inactive | – | – | – | – | –
CCCCNC(=O)CNC(=O)C(C)Oc1ccc(Oc2ncc(Cl)cc2Cl)cc1 (stereo not given) | – | – | Toxic | Non-toxic | – | – | Active | Active | – | – | – | Non-toxic | Non-toxic | Active | Active
CC(Oc1ccc(Oc2ncc(Cl)cc2Cl)cc1)C(=O)O (stereo not given) [PYRIPHENOP] | – | – | Toxic | Toxic | – | – | Active | Active | – | – | – | Toxic | Non-toxic | Active | Active
CCCCOC(=O)CNC(=O)C(C)Oc1ccc(Oc2ncc(Cl)cc2Cl)cc1 (stereo not given) | – | – | Non-toxic | Non-toxic | – | – | Active | Active | – | – | – | Non-toxic | Non-toxic | Active | Active
CC(Oc1ccc(Oc2ncc(C(F)(F)F)cc2Cl)cc1)C(=O)NOCC(=O)O (stereo not given) | – | – | Toxic | Toxic | – | – | Active | Active | – | – | – | Toxic | Toxic | Active | Active
CC(Oc1ccc(Oc2ncc(Cl)cc2Cl)cc1)C(N)=O (stereo not given) | – | – | Non-toxic | Non-toxic | – | – | Active | Active | – | – | – | Non-toxic | Non-toxic | inactive | Active
CC(Oc1ccc(Oc2ccc(C(F)(F)F)cn2)cc1)C(=O)NOCC(=O)O (stereo not given) | – | – | Toxic | Toxic | – | – | Active | Active | – | – | – | Toxic | Toxic | inactive | Active
CC(Oc1ccc(Oc2ncc(Cl)cc2Cl)cc1)C(=O)NCC(N)=O (stereo not given) | – | – | Toxic | Non-toxic | – | – | Active | Active | – | – | – | Non-toxic | Non-toxic | Active | Active
CCCNC(=O)CNC(=O)C(C)Oc1ccc(Oc2ncc(Cl)cc2Cl)cc1 (stereo not given) | – | – | Toxic | Non-toxic | – | – | Active | Active | – | – | – | Non-toxic | Non-toxic | inactive | Active
